Assay results reported in US5908924A, “Cloning and expression of the gene encoding thermoanaerobacter ethanolicus 39E secondary-alcohol dehydrogenase and enzyme biochemical characterization” (Michigan State University, priority 1997, dated 1999).
Entries after “also recorded” stand apart in the source; their conditions may differ. Where two headings read alike, the source gives them in different places.

Tests used:
[1] = molecular target: T1, recombinant T. ethanolicus 2° Adh (Thermoanaerobacter pseudethanolicus, UniProt B0KBL1); test: chemical modification (DTNB, DEPC) and reactivation by DTT with metal salts or EDTA; assay type: biochemical, Thermoanaerobacter ethanolicus 39E; parameters: homotetramer; activity recovery of DTNB-inactivated enzyme with DTT plus zinc: dose or concentration left out as unconfirmed; details: for effect on enzyme reactivation by DTT after DTNB inactivation: metal salts 0.01 mM to 1.0 mM, EDTA 0.5 mM to 3.0 mM
T1 sequence (B0KBL1 2-353): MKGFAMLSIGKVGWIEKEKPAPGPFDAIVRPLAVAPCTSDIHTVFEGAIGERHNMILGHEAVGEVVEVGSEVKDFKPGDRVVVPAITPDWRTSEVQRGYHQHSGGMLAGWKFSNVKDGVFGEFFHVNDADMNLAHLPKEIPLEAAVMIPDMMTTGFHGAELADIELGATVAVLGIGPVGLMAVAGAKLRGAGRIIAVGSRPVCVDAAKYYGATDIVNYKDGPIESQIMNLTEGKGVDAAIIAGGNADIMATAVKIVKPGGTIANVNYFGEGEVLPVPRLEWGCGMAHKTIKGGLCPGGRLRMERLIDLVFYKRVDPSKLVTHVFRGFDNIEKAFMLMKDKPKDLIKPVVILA
Experimental: Cysteine residues were reversibly modified using dithionitrobenzoate (DTNB) at 25° C. and 60° C.. […] Histidine residues were chemically modified with diethylpyrocarbonate (DEPC) by incubation with 20 mM or 40 mM DEPC in 50 mM phosphate buffer (pH 6.0) at 25° C. for 1.0 h and the reaction was quenched by addition of 0.5×volume of 0.5 M imidazole (pH 6.5).

T. brockii 2° Adh = details: sulfhydryl modification by p-chloromercuribenzoate; cited from earlier work
[2] = molecular target: T1, recombinant T. ethanolicus 2° Adh; test: standard 2° Adh activity assay (NADP+ reduction coupled to alcohol oxidation at 60° C.), Kmapp and Vmaxapp; details: for Vmaxapp / Km: 60° C.; for Km: read-out: Kmapp
Experimental: (§2) The enzyme was incubated at 55° C. for 15 min prior to activity determination unless otherwise indicated. Assays to determine Kmapp and Vmaxapp were conducted at 60° C. with substrate concentrations between 20×Kmapp and 0.2×Kmapp. Kinetic parameters were calculated from nonlinear best fits of the data to the Michaelis-Menten equation using Kinzyme software [26].

[3] = substrate: NC(=O)c1ccc[n+]([C@@H]2O[C@H](COP(=O)([O-])OP(=O)(O)OC[C@H]3O[C@@H](n4cnc5c(N)ncnc54)[C@H](OP(=O)(O)O)[C@@H]3O)[C@@H](O)[C@H]2O)c1; test: purified protein, by the assay type; details: other: 60° C.
Experimental: as §2

[4] = cited from earlier work; for time to complete inactivation: at 70° C.
[5] = 2° Adh thermostability: residual activity after timed incubation at the desired temperatures; assay type: physicochemical
Experimental: (§1) 2° Adh thermostability was measured as the residual activity after timed incubation at the desired temperatures. Thermal inactivation was stopped by incubation for 30 min at 25° C., and samples were prepared for activity assays by preincubation at 55° C. for 15 min. Incubations were performed in […] (cat. #72.733.050, Sarstedt; Newton, N.C.) using […] protein in […]. Activity was determined using the unfractionated samples. The temperature effect on enzyme activity was studied using the substrates propan-2-ol or ethanol at 10×Kmapp concentrations.

[6] = 2° Adh activity: standard assay and temperature effect on enzyme activity (Arrhenius plots); assay type: biochemical; details: for Arrhenius plot discontinuity temperature: enzyme preincubated at 0° C. or 25° C.
Experimental: as §1
To study the effect of enzyme preincubation temperature on enzyme reaction rates, the 2° Adh was incubated at 0° C., 25° C., or 55° C. for 15 min prior to activity determinations in the temperature range 30-90° C. Tris-HCl buffer pH values were adjusted at 25° C. to be pH 8.0 at the temperature they were used (thermal correction factor=-0.031 ΔpH °C.^-1). The statistical significance of the differences between the Arrhenius plot slopes above and below the discontinuity temperatures was determined by covariance analysis.

## CCOC(=O)OC(=O)OCC [DEPC, diethylpyrocarbonate]
[1]; 20 mM or 40 mM DEPC, pH 6.0, 25° C., 1.0 h
  enzyme inactivation by modification of histidine residues: completely inactivated; also recorded: complete enzyme inactivation

## O=C(O)c1cc[c]([Hg][Cl])cc1 [p-chloromercuribenzoate]
T. brockii 2° Adh
  inactivation and recovery of activity of T. brockii 2° Adh: inactivated

## [Cl][Ni][Cl] [NiCl2]
[1]; 60° C.
  recovered activity of DTNB-inactivated enzyme with DTT plus added metal salt, of the initial activity: 15%

## [Cl][Mn][Cl] [MnCl2]
[1]
  effect on enzyme reactivation by DTT after DTNB inactivation: did not affect enzyme reactivation by DTT

## O=S(=O)([O-])[O-].[Cd+2] [CdSO4]
[1]
  effect on enzyme reactivation by DTT after DTNB inactivation: did not affect enzyme reactivation by DTT

## [Cl][Fe][Cl] [FeCl2]
[1]
  effect on enzyme reactivation by DTT after DTNB inactivation: did not affect enzyme reactivation by DTT

## CCO [ethanol]
[2]
  Vmaxapp: 10 U mg^-1
  Km: 47000 µM
[2]; higher than for propan-2-ol
  Kmapp toward the 1° alcohol relative to the 2° alcohol: ~43 fold

## [Cl-].[Cl-].[Mg+2] [MgCl2]
[1]
  effect on enzyme reactivation by DTT after DTNB inactivation: did not affect enzyme reactivation by DTT

## [Cl-].[Na+] [NaCl]
[1]
  effect on enzyme reactivation by DTT after DTNB inactivation: did not affect enzyme reactivation by DTT

## NAD(H)
[2]
  NAD(H) dependent activity: no NAD(H) dependent activity was detected

## [Ca+2].[Cl-].[Cl-] [CaCl2]
[1]
  effect on enzyme reactivation by DTT after DTNB inactivation: did not affect enzyme reactivation by DTT

## O=C([O-])CN(CCN(CC(=O)[O-])CC(=O)O)CC(=O)[O-].[Na+].[Na+].[Na+] [EDTA, (ethylenedinitrilo) tetraacetic acid trisodium salt]
[1]; trisodium salt
  effect on enzyme reactivation by DTT after DTNB inactivation: did not affect enzyme reactivation by DTT; also recorded: inability of EDTA to reduce the rate of reactivation

## O[C@H](CS)[C@H](O)CS (racemic) [DTT, dithiothreitol]
[1]; 60° C., DTT, no added metal
  recovery of initial activity of DTNB-inactivated enzyme: 34%

## CC(C)O [propan-2-ol]
[2]
  Vmaxapp: 47 U mg^-1
  Km: 1100 µM

## [Cl-].[Cl-].[Co+2] [CoCl2]
[1]; 60° C.
  recovered activity of DTNB-inactivated enzyme with DTT plus added metal salt, of the initial activity: 10%

## [Cl-].[Cl-].[Zn+2] [ZnCl2]
[1]; in the presence of ZnCl2
  activity recovery of DTNB-inactivated enzyme with DTT plus zinc: up to 48%
T. brockii 2° Adh
  inactivation and recovery of activity of T. brockii 2° Adh: recovered activity only in the presence of ZnCl2

B1: recombinant T. ethanolicus 2° Adh (Thermoanaerobacter pseudethanolicus ATCC 33223) (protein)
chain: MKGFAMLSIGKVGWIEKEKPAPGPFDAIVRPLAVAPCTSDIHTVFEGAIGERHNMILGHEAVGEVVEVGSEVKDFKPGDRVVVPAITPDWRTSEVQRGYHQHSGGMLAGWKFSNVKDGVFGEFFHVNDADMNLAHLPKEIPLEAAVMIPDMMTTGFHGAELADIELGATVAVLGIGPVGLMAVAGAKLRGAGRIIAVGSRPVCVDAAKYYGATDIVNYKDGPIESQIMNLTEGKGVDAAIIAGGNADIMATAVKIVKPGGTIANVNYFGEGEVLPVPRLEWGCGMAHKTIKGGLCPGGRLRMERLIDLVFYKRVDPSKLVTHVFRGFDNIEKAFMLMKDKPKDLIKPVVILA
[3]
  Km: 11 µM
[4]; incubation for 30 minutes at 91° C.
  activity retained after incubation: 40%

B2: T. ethanolicus 39E 2° Adh: thermophilic NADP(H)-dependent secondary-alcohol dehydrogenase of Thermoanaerobacter ethanolicus 39E (SEQ ID NO: 2), adhB gene expressed in E. coli, homotetramer (protein)
chain: MKGFAMLSIGKVGWIEKEKPAPGPFDAIVRPLAVAPCTSDIHTVFEGAIGERHNMILGHEAVGEVVEVGSEVKDFKPGDRVVVPAITPDWWTSEVQRGYHQHSGGMLAGWKFSNVKDGVFGEFFHVNDADMNLAHLPKEIPLEAAVMIPDMMTTGFHGAELADIELGATVAVLGIGPVGLMAVAGAKLRGAGRIIAVGSRPVCVDAAKYYGATDIVNYKDGPIESQIMNLTEGKGVDAAIIAGGNADIMATAVKIVKPGGTIANVNYFGEGEVLPVPRLEWGCGMAHKTIKGGLCPGGRLRMERLIDLVFYKPVDPSKLVTHVFQGFDNIEKAFMLMKDKPKDLIKPVVILA
[5]
  thermostability and thermophilicity compared with other 2° Adhs: more thermostable and thermophilic
[5]; at 90° C., recombinant enzyme
  half-life: 1.7 h
[5]; incubated at 90° C.
  time for which detectable activity was retained: retained detectable activity for more than one hour
[5]; incubation for more than one hour at 90° C.
  activity retained after incubation: 100%
[6]
  difference between activation energies above and below the discontinuity (Δ), ethanol oxidation relative to propan-2-ol oxidation: at least 3 fold
[6]; before DTNB modification
  initial activity: 54±3.0 U mg^-1
[6]; ethanol oxidation, enzyme incubated at 55° C. prior to assay (FIG. 2B)
  Arrhenius plot form: distinct discontinuity
[6]; ethanol oxidation
  Arrhenius plot discontinuity temperature: ~ 46 °C
[6]; propan-2-ol oxidation, recombinant enzyme (FIG. 2A)
  temperature range of activity: detected below 25 °C and increased to beyond 90 °C
[6]; propan-2-ol oxidation, enzyme incubated at 55° C. prior to assay
  Arrhenius plot form: linear from 25 °C to 90 °C
[6]; propan-2-ol oxidation
  Arrhenius plot discontinuity temperature: ~ 55 °C

B3: C. beijerinckii 2° Adh: mesophilic NADP(H)-dependent secondary-alcohol dehydrogenase of Clostridium beijerinckii (protein, UniProt P25984 1-351, looked up)
NADP-dependent isopropanol …: MKGFAMLGINKLGWIEKERPVAGSYDAIVRPLAVSPCTSDIHTVFEGALGDRKNMILGHEAVGEVVEVGSEVKDFKPGDRVIVPCTTPDWRSLEVQAGFQQHSNGMLAGWKFSNFKDGVFGEYFHVNDADMNLAILPKDMPLENAVMITDMMTTGFHGAELADIQMGSSVVVIGIGAVGLMGIAGAKLRGAGRIIGVGSRPICVEAAKFYGATDILNYKNGHIVDQVMKLTNGKGVDRVIMAGGGSETLSQAVSMVKPGGIISNINYHGSGDALLIPRVEWGCGMAHKTIKGGLCPGGRLRAEMLRDMVVYNRVDLSKLVTHVYHGFDHIEEALLLMKDKPKDLIKAVVIL
[4]
  time to complete inactivation: ≤ 10 min
[4]; listed as C. beijerinckii
  time to complete inactivation: ≤ 10 min
